Data taken from US10550096B2, “Tetrahydroisoquinolines as PRMT5 inhibitors” (CTXT PTY LTD, priority 2016, dated 2020).
Counter-ions that a name gives are not always drawn.

Columns and labels:
TE11 cells = assay: PRMT5 Biomarker Assay (symmetrical dimethylation of arginine, Histone H4 Arginine 3); assay type: cell-based; conditions: Homo sapiens, TE-11; TE11 cell line, 72 hours incubation, Di-Methyl Histone H4 Arginine 3 level, high content imaging
Description: Compounds of the invention may be tested for potency to inhibit symmetrical dimethylation of arginine in the following assay:
The cell line TE11 was seeded at a density of 6,000 cells per well in 96 well optical quality tissue culture plates in DME medium and 10% foetal bovine serum, and allowed to adhere for 5 hours under standard culture conditions (37 degree Celsius, 5% CO2). Compound dilutions prepared in DMSO were added to the medium, with negative control wells reserved for treatment with DMSO only and maximum inhibition controls receiving a potent PRMT5 inhibitor compound at 1 μM concentration. After incubation for 72 hours, the cells were fixed with 3.7% formaldehyde in PBS for 30 minutes at room temperature, washed with phosphate buffer saline and blocked with Odyssey blocking buffer (LI-COR, Lincoln, Nebr.). Rabbit anti-Di-Methyl Histone H4 Arginine 3 specific antibody (Epigentek) in Odyssey blocking buffer was added and incubated for 14 hours at 4 degree Celsius. […] Plates were washed and read on a PerkinElmer Envision 2103 in fluorescence intensity scanning mode (24 scans across the well area). […] Using a Columbus image analysis pipeline, individual nuclei were located by Hoechst 33342 stain and the methylation level was calculated from the Alexa647-related intensity in the same area. […]

[1] = molecular target: Full-length PRMT5 enzyme co-expressed with His6-MEP50 (Homo sapiens (Human), UniProt O14744); assay: PRMT5 Biochemical Assay; conditions: histone H4 derived peptide substrate 1 μM, 1 μM S-Adenosyl methionine, 4 hours at 37 degree Celsius, Transcreener EPIGEN fluorescence polarisation
Description: Compounds of the invention may be tested for in vitro activity in the following assay:
A histone H4 derived peptide is used as substrate (amino acid sequence: […]NH2). Full-length PRMT5 enzyme (NCBI Reference sequence NP_006100.2) was co-expressed with His6-MEP50 in insect cells and purified via Nickel immobilized metal affinity and gel filtration chromatography (“the enzyme”).
The 6 μL reactions are run in Greiner brand black 384-well low volume assay plates. All reactions contained assay buffer (phosphate buffered saline, 0.01% (v/v) Tween-20, 0.01% (w/v) albumin from chicken egg white, 1 mM Dithiothreitol, 1 μM peptide substrate, 1 μM S-Adenosyl methionine, and 15 ng/reaction enzyme, with the enzyme being omitted from negative control reactions. Compounds were added in a volume of 100 nL from dilution series prepared in DMSO, positive and negative control reactions receiving the same volume DMSO without compound. The plates were sealed with adhesive seals and incubated for 4 hours at 37 degree Celsius. Reaction progress was measured using the Transcreener™ EPIGEN methyltransferase assay (BellBrook Labs, Madison, Wis.) as recommended by the manufacturer. To each reaction 2 μL detection mix were added, containing coupling enzymes, fluorescence polarisation tracer, and AMP antibody. Plates were incubated for 90 minutes before being read on a PerkinElmer EnVision™ plate reader in fluorescence polarisation mode. IC50 values were obtained from the raw readings by calculating percent inhibition (% I) for each reaction relative to controls on the same plate (% I=(I−CN)/(CP−CN) where CN/CP are the averages of the negative/positive reactions, respectively), then fitting the % I data vs. compound concentration [I] to % I=(A+((B−A)/(1+((C/[I])^D)))) where A is the lower asymptote, B is the upper asymptote, C is the IC50 value, and D is the slope.

Full-length PRMT5 enzyme co-expressed with His6-MEP50, sequence (O14744 whole entry): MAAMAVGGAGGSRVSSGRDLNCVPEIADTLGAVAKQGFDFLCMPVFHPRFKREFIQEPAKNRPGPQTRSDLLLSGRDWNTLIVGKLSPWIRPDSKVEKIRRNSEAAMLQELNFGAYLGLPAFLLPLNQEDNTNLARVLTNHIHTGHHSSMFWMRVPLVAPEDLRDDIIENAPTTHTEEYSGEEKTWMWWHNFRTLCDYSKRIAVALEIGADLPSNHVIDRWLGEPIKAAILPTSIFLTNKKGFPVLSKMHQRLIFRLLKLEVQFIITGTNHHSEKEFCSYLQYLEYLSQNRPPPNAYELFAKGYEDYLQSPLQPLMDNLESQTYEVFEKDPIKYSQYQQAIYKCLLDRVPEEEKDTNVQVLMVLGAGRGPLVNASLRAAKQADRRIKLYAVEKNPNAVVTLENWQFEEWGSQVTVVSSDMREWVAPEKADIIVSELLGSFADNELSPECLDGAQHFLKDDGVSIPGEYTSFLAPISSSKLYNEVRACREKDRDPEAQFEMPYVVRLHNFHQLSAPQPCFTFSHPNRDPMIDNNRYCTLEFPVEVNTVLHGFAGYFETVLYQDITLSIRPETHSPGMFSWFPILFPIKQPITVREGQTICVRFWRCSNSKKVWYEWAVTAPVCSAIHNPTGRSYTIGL
Full-length PRMT5 enzyme co-expressed with His6-MEP50, sequence (Q9BQA1 whole entry partner): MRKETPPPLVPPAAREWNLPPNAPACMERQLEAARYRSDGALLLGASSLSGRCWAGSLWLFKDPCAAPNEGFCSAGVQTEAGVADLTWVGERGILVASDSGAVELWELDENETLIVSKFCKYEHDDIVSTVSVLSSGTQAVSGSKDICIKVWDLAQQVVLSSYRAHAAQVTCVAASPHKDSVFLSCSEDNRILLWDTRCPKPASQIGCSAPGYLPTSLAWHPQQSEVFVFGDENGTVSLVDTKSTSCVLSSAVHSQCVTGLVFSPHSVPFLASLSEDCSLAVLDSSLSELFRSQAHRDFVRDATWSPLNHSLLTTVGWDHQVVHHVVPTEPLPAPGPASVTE

Compound | IC50 (TE11 cells) [nM] | IC50 [1] [nM]
O=C(c1ccc2c(=O)n(C[C@@H](O)[C@@H]3Cc4ccccc4CN3)ccc2c1)N1C2CCC1COC2 [Example 1, 6-(3-Oxa-8-azabicyclo[3.2.1]octane-8-carbonyl)-2-((R)-2-hydroxy-2-((S)-1,2,3,4-tetrahydroisoquinolin-3-yl)ethyl)isoquinolin-1(2H)-one hydrochloride] | 430 | 533
Cc1nn(C[C@@H](O)[C@@H]2Cc3ccccc3CN2)c(=O)c2ccccc12 [Example 2, 2-((R)-2-Hydroxy-2-((S)-1,2,3,4-tetrahydroisoquinolin-3-yl)ethyl)-4-methylphthalazin-1(2H)-one hydrochloride] |  | 7320
CCc1nn(C[C@@H](O)[C@@H]2Cc3ccccc3CN2)c(=O)c2ccc(C(=O)N3C4CCC3COC4)cc12 [Example 3, 6-(3-Oxa-8-azabicyclo[3.2.1]octane-8-carbonyl)-4-ethyl-2-((R)-2-hydroxy-2-((S)-1,2,3,4-tetrahydroisoquinolin-3-yl)ethyl)phthalazin-1(2H)-one hydrochloride] | 1 | 39
